Test results from US8017786B2, “Substituted β-phenyl-α-hydroxy-propanoic acid, synthesis method and use thereof” (Northwest University, priority 2006, dated 2011).

Columns and labels:
Type in all cases: in vivo, rat
caspase-3 = experiment: Immunohistochemistry protein expression in I/R myocardial tissue: caspase-3; conditions: for Caspase-3 protein expression, OD value: 5 days, ischemia 30 min, reperfusion 2 h
Procedure: 52 SD rats having a body weight of 220±20 g were randomly divided into model control group, salviannic acid injection group (in 1 mL/kg), and group of bornyl β-(3,4-dihydroxylphenyl)-α-hydroxylpropionate ester at a small, middle and large dose (ip 5, 15, 35 mg/kg). The rats of the normal group and the model control group were ip administered with equal-volume of physiologic saline. The rats of all groups were administered for consecutive 5 days. When the rats were administered for the last time, they were simultaneously anesthetized with 1.5% pentobarbital sodium (ip 45 mg/kg), then a catheter was inserted into the right carotid artery, and connected via a transducer to an eight-channeled physiological recorder. Tracheal cannula was performed, and the ventilation rate was maintained at 60 times/min. The chest was opened, a 6/0 suture was used to form a loop at a site 1˜2 mm from the root of the anterior descending coronary artery, and a plastic pipe was introduced through the loop, then the loop was tightened up. The change of electrocardiogram was observed. An increase or decrease of ST indicated the success of ligation. The color of the myocardial tissue below the ligation suture became darker. 30 minutes later, the plastic pipe was pulled out to allow coronary artery blood flowing again and cause hyperemia of local tissue during reperfusion. For the groups subjected to ischemia for 30 min and reperfusion for 30 min, the myocardial infarction areas were recorded before the test, after ischemia for 1 min and 30 min, and after reperfusion for 30 min; for the groups subjected to ischemia for 30 min and reperfusion for 2 h, cardiac tissue samples were taken and fixed using 10% formalin, embedded with paraffin, serially sliced into sections with a thickness of 4 μm, and separately subjected to immunohistochemistry tests; the rats of the sham operation group were subjected only to the introduction of suture but their coronary arteries were not ligated.
Standard immunohistochemistry ABC and SP methods were employed for staining. Bax: anti-rabbit polyclonal antibody (Santa CruzBio. Inc.) at a dilution of 1:200; […]: anti-rabbit polyclonal antibody (TBD Tianjin Biotechnological Center). At a dilution of […]; caspase-3: anti-rabbit polyclonal antibody (Normarkers Fromont, Calif.), at a dilution of 1:200; MMP-2: anti-murine monoclonal antibody (NormarkersFromont, Calif.) at a dilution of 1:200; PPARγ: anti-caprine polyclonal antibody (Santa Cruz Bio. Inc.), at a dilution of 1:500. The specific procedures were performed in accordance with the instructions of the ABC and SP kits, DAB was used for color development, and neutral resin was used for mounting. PBS was used instead of the first antibody as a negative control. Cells with positive expression of the test polypeptides were of brown-yellow color, with MMP-2 protein being present in acytoplasm, Bcl-2 expressed in nuclear membrane and cytoplasm, Bax mainly in cytoplasm and partially in nucleus, and caspase-3 mainly in nucleus and partially in cytoplasm. CMIAS image analysis system was used for random selection of fields of slices and automatic selection of sites for analysis, and statistic analysis was performed by using mean optical density values or integral optical density values of the obtained myocardial tissue slices.

creatine kinase (CK) = experiment: Serum CK activity in rats with myocardial ischemia; conditions: for CK: serum, 24 h after ligation
Procedure: (§1) At 0.5 h after the rats of these groups were administered intragastrically, the standard II lead electrocardiogram (before modeling) was recorded, and the height of ST-T segment was measured. The rats of sham operation group were then subjected to coronary artery braid without ligation, and the rats of other groups were subjected to coronary artery ligation in accordance with the following method to establish cute myocardial ischemia models. The rats were subjected to etherization, fixed at supine position, and their normal electrocardiograms (before modeling) were recorded. The skin of left thorax was incised under aseptic conditions, the 4th intercostal muscles were isolated in blunt way, the heart was extruded by light pressure to the right thorax, the left anterior descending coronary artery was ligated at a position 2˜3 mm departing from the left coronary artery origin and between the pulmonary conus and the left auricle of heart, then the heart was sent back to thorax cavity immediately and sutured the incision. Penicillin was smeared topically for the prevention of infections. After operation, the electrocardiogram of postischemia was recorded immediately (at 0 min after modeling), and the height of ST-T segment was measured.

[1] = test system: superoxide dismutase (SOD); experiment: Serum SOD activity in rats with myocardial ischemia; conditions: for SOD: serum, 24 h after ligation
Procedure: as §1

With CC1(C)C2CCC1(C)C(OC(=O)C(O)Cc1ccc(O)c(O)c1)C2 (stereo not drawn) [bornyl salvianate ester, bornyl β-(3,4-dihydroxylphenyl)-α-hydroxylpropionate ester] the “Caspase-3 protein expression, OD value” (caspase-3; 5 mg/kg ip) was 0.35 ± 0.14, the “Caspase-3 protein expression, OD value” (caspase-3; 15 mg/kg ip) was 0.32 ± 0.08 and the “Caspase-3 protein expression, OD value” (caspase-3; 35 mg/kg ip) was 0.20 ± 0.07. For the same compound, the “expression of caspase-3 protein (in words)” value (caspase-3; myocardial cells I/R) was “reduce the expression of Bax and caspase-3 proteins”, the CK (creatine kinase (CK); 10 mg/kg intragastric) was 1214.2 ± 160.2 U/L and the CK (creatine kinase (CK); 20 mg/kg intragastric) was 894.5 ± 176.3 U/L. For the same compound, the CK (creatine kinase (CK); 40 mg/kg intragastric) was 778.0 ± 177.1 U/L, the “activity of creatine kinase (CK) (in words)” value (creatine kinase (CK); all dose groups, 24 h later) was “decreased” and the SOD ([1]; 10 mg/kg intragastric) was 117.66 ± 31.97 U/mL. For the same compound, the SOD ([1]; 20 mg/kg intragastric) was 111.32 ± 20.36 U/mL, the SOD ([1]; 40 mg/kg intragastric) was 119.63 ± 23.53 U/mL and the “superoxide dismutase (SOD) (in words)” value ([1]; especially in the large dose group) was “increased”.
